{"source": "paper PMC12013085", "about": "“Peptides targeting RAB11A–FIP2 complex inhibit HPIV3, RSV, and IAV replication as broad-spectrum antivirals” (Cell & Bioscience, 2025)", "key": {"HPIV3 VLPs in 293T cells": {"test_system": "HPIV3 VLPs in 293T cells", "assay": "HPIV3 VLP budding and plasma membrane fraction assay, WB", "assay_type": "cell-based", "details": "293T cells transfected with N, P, M plasmids 30 h, inhibitor for 6 h", "procedure": "Data are presented as means ± SEM\nThe cell lysates were prepared as described for the Western blot (WB) analysis. The supernatant was harvested and clarified by centrifugation at 12,000×g for 5 min. Subsequently, the supernatant was pelleted through a 20% sucrose cushion at 4 °C at 35,000 rpm for 2 h. The VLP pellets obtained were resuspended in PBS and boiled with SDS-PAGE loading buffer at 100 °C for 10 min. Both the cell lysates and the supernatants were then subjected to WB analysis.\n293T cells, cultured in 6-cm dishes, were transfected with the indicated plasmids for 24 h. Cell collection was performed through centrifugation at 500×g for 5 min at 4 °C. Subsequently, cytosol, organelle membrane, and plasma membrane-associated proteins were extracted sequentially using the MinuteTM plasma membrane protein isolation and cell fractionation kit (INVENT), following the manufacturer's instructions."}, "HPIV3 [1]": {"test_system": "HPIV3", "assay": "Late-stage HPIV3 replication with cytoskeleton inhibitors (TCID50, RT-qPCR, WB)", "details": "HeLa cells infected 18 h, then inhibitor for 6 h; for viral RNA synthesis and protein expression levels: RT-qPCR and WB; for HPIV3 virions in the supernatant / intracellular progeny virus particles: TCID50 at 24 hpi", "experimental": "To investigate the role of the cytoskeleton in the later stages of infection, HeLa cells were infected with HPIV3 for 18 h before being treated with the inhibitors for an additional 6 h.\nA–D Impact of cytoskeleton inhibitors on HPIV3 replication. HeLa cells infected with HPIV3 for 18 h were treated with Nocodazole (NCZ) or Cytochalasin D (Cyto D). At 24 h post infection (hpi), the virions released in the cell supernatant (A) and the quantity of intracellular progeny virus particles (B) were determined by TCID50 assays. Cells were collected for RT-qPCR analysis of intracellular viral RNA (C), and Western Blot (WB) analysis of intracellular viral protein (D). […] All experiments were independently repeated at least twice with reproducible results. Statistical significance (*p < 0.05, **p < 0.01, ***p < 0.001) was determined by two-sided unpaired t test. Data are means ± SEM"}, "WSN virus": {"test_system": "WSN virus", "assay_type": "in vivo, BALB/c mice", "details": "20 mg/kg i.p. once daily Day 0 to Day 4, positive control, n = 5"}, "HPIV3 [2]": {"test_system": "HPIV3"}, "HeLa cells": {"test_system": "HeLa cells", "assay": "Cellular uptake of FITC-labeled RBD, fluorescent microscopy", "assay_type": "in vitro ADME", "details": "5 μM FITC-labeled RBD, with or without HPIV3HA-P infection, fluorescent microscopy at 24 hpi", "procedure": "Supplementary file 13578_2025_1384_MOESM4_ESM.tif: Supplementary Material 4. Fig. S4. Cell penetration, cytotoxicity, and anti-HPIV3 activity of RBD in different cell lines. (A) Cellular uptake of FITC-labeled RBD in HeLa Cells. HeLa cells were exposed to 5 μM FITC-labeled RBD in the absence or presence of HPIV3HA-P infection, and analyzed by fluorescent microscopy at 24 hpi. RBD (green), HPIV3HA-P (red), and nuclei were stained with DAPI. Scale bar, 50 μm. (B to F) Cytotoxicity of RBD in various cell lines. Cell viability was assessed in HeLa (B), A549 (C), MK2 (D), MDCK (E) and HEp-2 cells (F) treated with increasing concentrations of […] for 24 h using the CCK-8 assay. (G to I) Antiviral efficacy of RBD against HPIV3 in different cell lines. A549 (G), MK2 (H) and MDCK (I) cells were treated with 2-fold-increasing concentrations of RBD for 24h, and viral titers in the cell supernatant were determined by TCID50. […] Data are means ± SEM."}, "[3]": {"test_system": "HeLa, A549, MK2, MDCK and HEp-2 cells", "details": "CCK-8, 24 h treatment, in the tested cell lines (HeLa, A549, MK2, MDCK, HEp-2)"}}, "note": "Read-outs that look alike come from different tables or passages of the source.", "data": [{"molecule": "C=C1[C@@H](C)[C@H]2[C@H](Cc3ccccc3)NC(=O)[C@]23[C@H](OC(C)=O)/C=C/[C@@](C)(O)C(=O)[C@@H](C)C/C=C/[C@H]3[C@@H]1O", "note": "[Cyto D, Cytochalasin D]", "values": [{"measurement": "VLP production", "setting": "HPIV3 VLPs in 293T cells", "result": "substantial impact"}, {"measurement": "viral RNA synthesis and protein expression levels", "setting": "HPIV3 [1]", "result": "unaffected"}, {"measurement": "HPIV3 virions in the supernatant", "setting": "HPIV3 [1]", "result": "significant reduction"}, {"measurement": "intracellular progeny virus particles", "setting": "HPIV3 [1]", "result": "decrease"}]}, {"molecule": "COC(=O)Nc1nc2ccc(C(=O)c3cccs3)cc2[nH]1", "note": "[NCZ, Nocodazole]", "values": [{"measurement": "VLP production", "setting": "HPIV3 VLPs in 293T cells", "result": "modest effect"}, {"measurement": "viral RNA synthesis and protein expression levels", "setting": "HPIV3 [1]", "result": "unaffected"}, {"measurement": "HPIV3 virions in the supernatant", "setting": "HPIV3 [1]", "result": "significant reduction"}, {"measurement": "intracellular progeny virus particles", "setting": "HPIV3 [1]", "result": "decrease"}]}, {"molecule": "CCOC(=O)C1=C[C@@H](OC(CC)CC)[C@H](NC(C)=O)[C@@H](N)C1", "note": "[Osel, Oseltamivir, reference compound]", "values": [{"measurement": "protection against morbidity and mortality, IAV (WSN)", "setting": "WSN virus", "result": "complete protection against morbidity and mortality"}]}, {"molecule": "N=C(N)NCCC[C@H](NC(=O)[C@H](CCCNC(=N)N)NC(=O)[C@H](CCCNC(=N)N)NC(=O)[C@H](CCC(N)=O)NC(=O)[C@H](CCCNC(=N)N)NC(=O)[C@H](CCCNC(=N)N)NC(=O)[C@H](CCCCN)NC(=O)[C@H](CCCCN)NC(=O)[C@@H](N)CCCNC(=N)N)C(=O)O", "note": "[Tat, reference compound]", "values": [{"measurement": "antiviral effect on HPIV3 infection (in words)", "setting": "HPIV3 [2]; HeLa cells, escalating concentrations, 24 hpi, WB and TCID50", "result": "no discernible antiviral effect"}]}, {"molecule": "THIRELEDYIDNLLVRVMEETPSILRVPRKKRRQRRR [RBD]", "values": [{"measurement": "SI (CC50/IC50), HPIV3, A549", "setting": "HPIV3 [2]; A549 cells", "result": "> 21.55"}, {"measurement": "SI (CC50/IC50), HPIV3, HeLa", "setting": "HPIV3 [2]; HeLa cells", "result": "> 23.08"}, {"measurement": "SI (CC50/IC50), HPIV3, MDCK", "setting": "HPIV3 [2]; MDCK cells", "result": "> 15.37"}, {"measurement": "SI (CC50/IC50), HPIV3, MK2", "setting": "HPIV3 [2]; MK2 cells", "result": "> 27.68"}, {"measurement": "IC50", "setting": "HPIV3 [2]; read-out: IC50, HPIV3, A549", "result": 3.48, "unit": "µM"}, {"measurement": "IC50", "setting": "HPIV3 [2]; read-out: IC50, HPIV3, HeLa", "result": 3.25, "unit": "µM"}, {"measurement": "IC50", "setting": "HPIV3 [2]; read-out: IC50, HPIV3, MDCK", "result": 4.88, "unit": "µM"}, {"measurement": "IC50", "setting": "HPIV3 [2]; read-out: IC50, HPIV3, MK2", "result": 2.71, "unit": "µM"}, {"measurement": "cell penetration (cellular uptake)", "setting": "HeLa cells", "result": "efficiently penetrated HeLa cells"}, {"measurement": "CC50", "setting": "[3]", "result": "> 75", "unit": "µM"}]}]}
